Assay results reported in patent publication US20150203444A1, “POLYMORPHS OF N-((S)-3-AMINO-1-(HYDROXYAMINO)-3-METHYL-1-OXOBUTAN-2-YL)-4-(((1R,2R)-2-(HYDROXYMETHYL)CYCLOPROPYL)BUTA-1,3-DIYNYL)BENZAMIDE” (Achaogen, Inc., priority 2011, published 2015).
Where a name gives a salt, the structure may show the parent alone.

Assays:
[1] = Solid-state properties of the polymorphs (summary statement); assay type: physicochemical
[2] = Stability at elevated humidity (XRPD form check); assay type: physicochemical; conditions: summary statement
Protocol: Approximately 30 mg of Form A, Form B and Form C were placed on an XRPD slide and kept inside a glass jar containing a water solution saturated with NaCl. The solution maintains 75% relative humidity inside the jar. The container was covered with aluminum foil to prevent exposure to light. The sample was kept in this environment for seven days at room temperature. After this time period the slide was removed from the chamber and analyzed immediately by XRPD (see Table 4).

[3] = Competitive slurry experiments (XRPD); assay type: physicochemical; conditions: competitive slurry of Forms A, B and C together, IPA:IBAc (10:90), room temperature
Protocol: Approximately 10 mg of Form A, B and C were weighed into 2.0-mL vials equipped with a stir bar. 0.5 mL of solvent was added and the resulting free flowing slurry was allowed to equilibrate with stirring at room temperature. Samples were pulled at one day and seven day time points, filtered through 0.45 micron centrifuge filters, dried overnight at room temperature under vacuum and analyzed by XRPD (see Table 7).

[4] = Stability at elevated temperature (XRPD form check and HPLC purity); assay type: physicochemical; conditions: for % AUC (Following exposure): HPLC purity after seven days at 60° C.; for % AUC (Control): HPLC purity, control before exposure
Protocol: Approximately 10 mg of Form A, Form B and Form C were weighed to individual 4-mL amber vials covered with a kimwipe and stored in an oven at 60° C. and ambient pressure. After seven days of exposure, the solids were be analyzed by XRPD to check for form conversion and HPLC for purity (see Table 5).

E. coli ATCC25922 = experiment: MIC by broth microdilution (CLSI), AECO001; assay type: cell-based; conditions: Escherichia coli, ATCC25922, read-out: Minimum Inhibitory Concentration (MIC) AECO001
Protocol: (§1) Bacterial isolates were cultivated from −70° C. frozen stocks by overnight passages at 35° C. in ambient air on Mueller-Hinton agar (Beckton Dickinson, Franklin Lakes, N.J.). Clinical isolates tested were obtained from various geographically diverse hospitals in the US and abroad (Focus Diagnostics, Herndon, Va. and JMI, North Liberty, Iowa). Quality control strains were from the American Type Culture Collection (ATCC; Rockville, Md.).
(§2) Minimum Inhibitory Concentrations (MICs) were determined by the broth microdilution method in accordance with the Clinical and Laboratory Standards Institute (CLSI) guidelines. In brief, organism suspensions were adjusted to a 0.5 McFarland standard to yield a final inoculum between 3×10^5 and 7×10^5 colony-forming units (CFU)/mL. Drug dilutions and inocula were made in sterile, cation adjusted Mueller-Hinton Broth (Beckton Dickinson). An inoculum volume of 100 μL was added to wells containing 100 μL of broth with 2-fold serial dilutions of drug. All inoculated microdilution trays were incubated in ambient air at 35° C. for 18-24 h. Following incubation, the lowest concentration of the drug that prevented visible growth (OD600 nm<0.05) was recorded as the MIC. Performance of the assay was monitored by the use of laboratory quality-control strains and levofloxacin, a compound with a defined MIC spectrum, in accordance with CLSI guidelines. […]

[5] = tested on: Pseudomonas aeruginosa ATCC27853; experiment: MIC by broth microdilution (CLSI), APAE001; assay type: cell-based; conditions: ATCC27853, read-out: Minimum Inhibitory Concentration (MIC) APAE001
Protocol: as §1, §2

[6] = tested on: clinical isolate of Pseudomonas aeruginosa expressing a normal level of efflux activity; experiment: MIC by broth microdilution (CLSI), APAE002; assay type: cell-based; conditions: read-out: Minimum Inhibitory Concentration (MIC) APAE002
Protocol: as §1, §2

[7] = tested on: Klebsiella pneumoniae ATCC43816; experiment: MIC by broth microdilution (CLSI), AKPN001; assay type: cell-based; conditions: ATCC43816, read-out: Minimum Inhibitory Concentration (MIC) AKPN001
Protocol: as §1, §2

Compound | Thermodynamic stability among the three polymorphic forms [1] | Stability to exposure to elevated relative humidity [2] | XRPD Final Form (1 day) [3] | % AUC (Following exposure) [4] | % AUC (Control) [4] | Stability to prolonged thermal stress ([4]; summary statement) | MIC (E. coli ATCC25922) | MIC [5] | MIC [6] | MIC [7] | Hygroscopicity ([1]; solid)
CC(C)(N)[C@H](NC(=O)c1ccc(C#CC#C[C@@H]2C[C@H]2CO)cc1)C(=O)NO [Form B, N—((S)-3-amino-1-(hydroxyamino)-3-methyl-1-oxobutan-2-yl)-4-(((1R,2R)-2-(hydroxymethyl)cyclopropyl)buta-1,3-diynyl)benzamide] | most thermodynamically stable | exhibited stability | A + B | 97.4 % AUC | 99.6 % AUC | exhibited stability |  |  |  |  | 
CC(C)(N)[C@H](NC(=O)c1ccc(C#CC#C[C@@H]2C[C@H]2CO)cc1)C(=O)NO [I (trifluoroacetate salt), N—((S)-3-amino-1-(hydroxyamino)-3-methyl-1-oxobutan-2-yl)-4-(((1R,2R)-2-(hydroxymethyl)cyclopropyl)buta-1,3-diynyl)benzamide trifluoroacetate salt] |  |  |  |  |  |  | < 2 µg/mL | < 2 µg/mL | < 2 µg/mL | < 2 µg/mL | 
CC(C)(N)[C@H](NC(=O)c1ccc(C#CC#C[C@@H]2C[C@H]2CO)cc1)C(=O)NO [Form C, N—((S)-3-amino-1-(hydroxyamino)-3-methyl-1-oxobutan-2-yl)-4-(((1R,2R)-2-(hydroxymethyl)cyclopropyl)buta-1,3-diynyl)benzamide] | metastable |  | A + B | 95.5 % AUC | 99.0 % AUC |  |  |  |  |  | 
CC(C)(N)[C@H](NC(=O)c1ccc(C#CC#C[C@@H]2C[C@H]2CO)cc1)C(=O)NO [Form A, N—((S)-3-amino-1-(hydroxyamino)-3-methyl-1-oxobutan-2-yl)-4-(((1R,2R)-2-(hydroxymethyl)cyclopropyl)buta-1,3-diynyl)benzamide] |  |  | A + B | 94.5 % AUC | 99.2 % AUC |  |  |  |  |  | moderately hygroscopic
